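GI50 = concentration required for 50% inhibition of growth. TGI: concentration producing complete growth inhibition.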
Legend:
Assay in all cases: growth of human tumour cells (NCI), 384-well format
RPMI-8226 leukemia = tested on: RPMI-8226 leukemia
IGROV1 ovarian = tested on: IGROV1 ovarian
OVCAR-5 ovarian = tested on: OVCAR-5 ovarian
OVCAR-4 ovarian = tested on: OVCAR-4 ovarian
DU-145 prostate = tested on: DU-145 prostate
SNB-19 CNS = tested on: SNB-19 CNS
RXF 393 renal = tested on: RXF 393 renal
MDA-MB-231 breast = tested on: MDA-MB-231 breast
COLO 205 colon = tested on: COLO 205 colon
ACHN renal = tested on: ACHN renal
SF-539 CNS = tested on: SF-539 CNS
NCI/ADR-RES ovarian = tested on: NCI/ADR-RES ovarian
M14 melanoma = tested on: M14 melanoma
NCI-H226 lung = tested on: NCI-H226 lung
CAKI-1 renal = tested on: CAKI-1 renal
HOP-62 NSCLC = tested on: HOP-62 NSCLC
HCC-2998 colon = tested on: HCC-2998 colon
HOP-92 NSCLC = tested on: HOP-92 NSCLC
MOLT-4 leukemia = tested on: MOLT-4 leukemia
NCI-H23 lung = tested on: NCI-H23 lung
HT29 colon = tested on: HT29 colon
NCI-H322M lung = tested on: NCI-H322M lung
OVCAR-8 ovarian = tested on: OVCAR-8 ovarian
HL-60(TB) leukemia = tested on: HL-60(TB) leukemia
UACC-257 melanoma = tested on: UACC-257 melanoma
SF-268 CNS = tested on: SF-268 CNS
CCRF-CEM leukemia = tested on: CCRF-CEM leukemia
HCT-15 colon = tested on: HCT-15 colon
OVCAR-3 ovarian = tested on: OVCAR-3 ovarian
UACC-62 melanoma = tested on: UACC-62 melanoma
MDA-MB-435 melanoma = tested on: MDA-MB-435 melanoma
SF-295 CNS = tested on: SF-295 CNS
NCI-H460 NSCLC = tested on: NCI-H460 NSCLC
SR leukemia = tested on: SR leukemia
PC-3 prostate = tested on: PC-3 prostate
BT-549 breast = tested on: BT-549 breast
A498 renal = tested on: A498 renal
786-0 renal = tested on: 786-0 renal
T-47D breast = tested on: T-47D breast
SK-MEL-5 melanoma = tested on: SK-MEL-5 melanoma
SK-OV-3 ovarian = tested on: SK-OV-3 ovarian
SW-620 colon = tested on: SW-620 colon
KM12 colon = tested on: KM12 colon
LOX IMVI melanoma = tested on: LOX IMVI melanoma
UO-31 renal = tested on: UO-31 renal
SN12C renal = tested on: SN12C renal
MALME-3M melanoma = tested on: MALME-3M melanoma
MDA-MB-468 breast = tested on: MDA-MB-468 breast
NCI-H522 lung = tested on: NCI-H522 lung
SK-MEL-28 melanoma = tested on: SK-MEL-28 melanoma
K-562 leukemia = tested on: K-562 leukemia
SNB-75 CNS = tested on: SNB-75 CNS
HS 578T breast = tested on: HS 578T breast
MCF7 breast = tested on: MCF7 breast
TK-10 renal = tested on: TK-10 renal
EKVX NSCLC = tested on: EKVX NSCLC

Q: With `CC(C)c1cnn2c(NCc3ccccc3)cc(NC[C@H]3CCNC[C@@H]3O)nc12` as the molecule, how does the GI50 (RPMI-8226 leukemia) read?
A: 16.9 nM

Q: What about the TGI (RPMI-8226 leukemia) of the same molecule?
A: 56.5 nM

Q: And the GI50 (IGROV1 ovarian)?
A: 332 nM

Q: What about the TGI (IGROV1 ovarian) of the same molecule?
A: 2870 nM

Q: What about the GI50 (OVCAR-5 ovarian) of the same molecule?
A: 246 nM

Q: What about the TGI (OVCAR-5 ovarian) of the same molecule?
A: 770 nM

Q: What about the GI50 (OVCAR-4 ovarian) of the same molecule?
A: 154 nM

Q: And the TGI (OVCAR-4 ovarian)?
A: 475 nM

Q: What about the GI50 (DU-145 prostate) of the same molecule?
A: 111 nM

Q: What about the TGI (DU-145 prostate) of the same molecule?
A: 1780 nM

Q: And the GI50 (SNB-19 CNS)?
A: 410 nM

Q: What about the TGI (SNB-19 CNS) of the same molecule?
A: 10500 nM

Q: And the GI50 (RXF 393 renal)?
A: 251 nM

Q: What about the TGI (RXF 393 renal) of the same molecule?
A: 635 nM

Q: What about the GI50 (MDA-MB-231 breast) of the same molecule?
A: 290 nM

Q: And the TGI (MDA-MB-231 breast)?
A: 1730 nM

Q: And the GI50 (COLO 205 colon)?
A: 133 nM

Q: What about the TGI (COLO 205 colon) of the same molecule?
A: 411 nM

Q: And the GI50 (ACHN renal)?
A: 782 nM

Q: And the TGI (ACHN renal)?
A: 11200 nM

Q: And the GI50 (SF-539 CNS)?
A: 107 nM

Q: And the TGI (SF-539 CNS)?
A: 345 nM

Q: What about the GI50 (NCI/ADR-RES ovarian) of the same molecule?
A: 13800 nM

Q: What about the TGI (NCI/ADR-RES ovarian) of the same molecule?
A: 28900 nM

Q: And the GI50 (M14 melanoma)?
A: 292 nM

Q: And the TGI (M14 melanoma)?
A: 1190 nM

Q: And the GI50 (NCI-H226 lung)?
A: 193 nM

Q: What about the TGI (NCI-H226 lung) of the same molecule?
A: 675 nM

Q: What about the GI50 (CAKI-1 renal) of the same molecule?
A: 317 nM

Q: What about the TGI (CAKI-1 renal) of the same molecule?
A: 2820 nM

Q: And the GI50 (HOP-62 NSCLC)?
A: 131 nM

Q: And the TGI (HOP-62 NSCLC)?
A: 346 nM

Q: What about the GI50 (HCC-2998 colon) of the same molecule?
A: 223 nM

Q: What about the TGI (HCC-2998 colon) of the same molecule?
A: 787 nM

Q: What about the GI50 (HOP-92 NSCLC) of the same molecule?
A: 382 nM

Q: And the TGI (HOP-92 NSCLC)?
A: 2340 nM

Q: What about the GI50 (MOLT-4 leukemia) of the same molecule?
A: 122 nM

Q: What about the TGI (MOLT-4 leukemia) of the same molecule?
A: 267 nM

Q: And the GI50 (NCI-H23 lung)?
A: 167 nM

Q: What about the TGI (NCI-H23 lung) of the same molecule?
A: 644 nM

Q: And the GI50 (HT29 colon)?
A: 330 nM

Q: And the TGI (HT29 colon)?
A: 10700 nM

Q: What about the GI50 (NCI-H322M lung) of the same molecule?
A: 291 nM

Q: And the TGI (NCI-H322M lung)?
A: 975 nM

Q: And the GI50 (OVCAR-8 ovarian)?
A: 249 nM

Q: And the TGI (OVCAR-8 ovarian)?
A: 973 nM

Q: What about the GI50 (HL-60(TB) leukemia) of the same molecule?
A: 156 nM

Q: What about the TGI (HL-60(TB) leukemia) of the same molecule?
A: 291 nM

Q: And the GI50 (UACC-257 melanoma)?
A: 371 nM

Q: What about the TGI (UACC-257 melanoma) of the same molecule?
A: 1660 nM

Q: What about the GI50 (SF-268 CNS) of the same molecule?
A: 173 nM

Q: What about the TGI (SF-268 CNS) of the same molecule?
A: 411 nM

Q: And the GI50 (CCRF-CEM leukemia)?
A: 213 nM

Q: And the TGI (CCRF-CEM leukemia)?
A: 380 nM

Q: What about the GI50 (HCT-15 colon) of the same molecule?
A: 1300 nM

Q: And the TGI (HCT-15 colon)?
A: 8560 nM

Q: What about the GI50 (OVCAR-3 ovarian) of the same molecule?
A: 105 nM

Q: What about the TGI (OVCAR-3 ovarian) of the same molecule?
A: 578 nM

Q: What about the GI50 (UACC-62 melanoma) of the same molecule?
A: 57.8 nM

Q: And the TGI (UACC-62 melanoma)?
A: 238 nM

Q: What about the GI50 (MDA-MB-435 melanoma) of the same molecule?
A: 409 nM

Q: And the TGI (MDA-MB-435 melanoma)?
A: 1450 nM

Q: And the GI50 (SF-295 CNS)?
A: 419 nM

Q: And the TGI (SF-295 CNS)?
A: 3460 nM

Q: And the GI50 (NCI-H460 NSCLC)?
A: 22.6 nM

Q: And the TGI (NCI-H460 NSCLC)?
A: 64.6 nM

Q: What about the GI50 (SR leukemia) of the same molecule?
A: 23.5 nM

Q: And the TGI (SR leukemia)?
A: 103 nM

Q: What about the GI50 (PC-3 prostate) of the same molecule?
A: 271 nM

Q: What about the TGI (PC-3 prostate) of the same molecule?
A: 985 nM

Q: And the GI50 (BT-549 breast)?
A: 241 nM

Q: What about the TGI (BT-549 breast) of the same molecule?
A: 519 nM

Q: And the GI50 (A498 renal)?
A: 157 nM

Q: And the TGI (A498 renal)?
A: 599 nM

Q: And the GI50 ([…]-0 renal)?
A: 211 nM

Q: And the TGI (786-0 renal)?
A: 1520 nM

Q: And the GI50 (T-47D breast)?
A: 404 nM

Q: What about the TGI (T-47D breast) of the same molecule?
A: 3740 nM

Q: What about the GI50 (SK-MEL-5 melanoma) of the same molecule?
A: 242 nM

Q: What about the TGI (SK-MEL-5 melanoma) of the same molecule?
A: 655 nM

Q: What about the GI50 (SK-OV-3 ovarian) of the same molecule?
A: 360 nM

Q: What about the TGI (SK-OV-3 ovarian) of the same molecule?
A: 6890 nM

Q: What about the GI50 (SW-620 colon) of the same molecule?
A: 167 nM

Q: What about the TGI (SW-620 colon) of the same molecule?
A: 1660 nM

Q: What about the GI50 (KM12 colon) of the same molecule?
A: 128 nM

Q: And the TGI (KM12 colon)?
A: 541 nM

Q: What about the GI50 (LOX IMVI melanoma) of the same molecule?
A: 84.5 nM

Q: And the TGI (LOX IMVI melanoma)?
A: 260 nM

Q: And the GI50 (UO-31 renal)?
A: 3870 nM

Q: And the TGI (UO-31 renal)?
A: 14800 nM

Q: And the GI50 (SN12C renal)?
A: 168 nM

Q: And the TGI (SN12C renal)?
A: 841 nM

Q: And the GI50 (MALME-3M melanoma)?
A: 345 nM

Q: What about the TGI (MALME-3M melanoma) of the same molecule?
A: 1800 nM

Q: And the GI50 (MDA-MB-468 breast)?
A: 328 nM

Q: What about the TGI (MDA-MB-468 breast) of the same molecule?
A: 662 nM

Q: And the GI50 (NCI-H522 lung)?
A: 164 nM

Q: What about the TGI (NCI-H522 lung) of the same molecule?
A: 1680 nM

Q: And the GI50 (SK-MEL-28 melanoma)?
A: 226 nM

Q: And the TGI (SK-MEL-28 melanoma)?
A: 1130 nM

Q: What about the GI50 (K-562 leukemia) of the same molecule?
A: 389 nM

Q: And the TGI (K-562 leukemia)?
A: 1960 nM

Q: And the GI50 (SNB-75 CNS)?
A: 789 nM

Q: What about the TGI (SNB-75 CNS) of the same molecule?
A: 2040 nM

Q: What about the GI50 (HS 578T breast) of the same molecule?
A: 214 nM

Q: What about the TGI (HS 578T breast) of the same molecule?
A: 501 nM

Q: What about the GI50 (MCF7 breast) of the same molecule?
A: 113 nM

Q: And the TGI (MCF7 breast)?
A: 474 nM

Q: And the GI50 (TK-10 renal)?
A: 2980 nM

Q: What about the TGI (TK-10 renal) of the same molecule?
A: 14000 nM

Q: What about the GI50 (EKVX NSCLC) of the same molecule?
A: 467 nM

Q: And the TGI (EKVX NSCLC)?
A: 2530 nM

Reference: PubChem BioAssay (NCI)
